This is an account of results in patent publication US20220088121A1, “COMPOSITIONS CONTAINING A PEPTIDE ABLE TO STIMULATE THE GPRC6A-DEPENDENT SIGNALING PATHWAY” (Altergon S.A., priority 2019, published 2022).

The test system of experiment [1] is MA-10 mouse Leydig cell tumour cell lines. Description: Testosterone release from MA-10 mouse Leydig-cell tumour cell cultures. It is filed as cell-based. The following applies: experimental models of cell line cultures; Example 1: peptide 10^−6M, 12 hours at 37° C. (FIG. 1).
Experimental: MA-10 mouse Leydig-cell tumour cells, cultured to 90% confluence in 24-well multiwell plates, were stimulated with different agonists for 12 hours at 37° C. under sterile conditions, according to an already validated protocol [Cormier Cell Biol Toxicol. […] The control (CTRL) contained no agonists. The results relate to testosterone release, expressed as ng of testosterone (T) per μg of total protein, obtained from cell extract. […] Significance: *=P<0.05 vs. CTRL.
MA-10 mouse Leydig-cell tumour cells, cultured to 90% confluence in 24-well multiwell plates, were stimulated with different agonists for 12 hours at 37° C. under sterile conditions, according to an already validated protocol [Cormier Cell Biol Toxicol. […] Significance: *, ** and ***=P<0.05, 0.01 and 0.001 respectively vs the baseline control.
In experiment [2] the test system is INS-1 rat insulinoma cells. Description: Insulin release from INS-1 insulinoma cell cultures. It is filed as cell-based. The following applies: experimental models of cell line cultures.
Experimental: INS-1 rat insulinoma cells, cultured to 90% confluence in 24-well multiwell plates, were stimulated with different combinations of secretagogue agonists for 2 hours at 37° C. under sterile conditions, according to an already validated protocol [Hohmeier Diabetes. […] Stimulation with the phosphodiesterase inhibitor IBMX (Gluc 1 mM+IBMX) represents the maximum secretagogue stimulation and positive control of the experiment. […] Significance: *, ** and ***=P<0.05, 0.01 and 0.001 respectively vs the baseline control.

NMYLPPVPPPPVVPTF [SEQ ID 1]: the testosterone release entry in experiment [1] is given as “stimulates”. Moreover, the insulin release result in experiment [2] is reported as “stimulates”.
